Experimental data: US20100063085A1, “METHOD OF TREATING LEARNING IMPAIRMENT IN DOWN'S SYNDROME SUBJECTS” (University Court of The University of Dundee, priority 2008, published 2010)
Read-outs that look alike come from different tables or passages of the source.

Key:
Type in all cases: biochemical
CHK1 = biological target: T1, CHK1 (Homo sapiens, UniProt O14757); assay: CHK1 33P kinase assay; conditions: read-out: CHK1 activity as percentage of control without inhibitor
T1 sequence (O14757 1-476): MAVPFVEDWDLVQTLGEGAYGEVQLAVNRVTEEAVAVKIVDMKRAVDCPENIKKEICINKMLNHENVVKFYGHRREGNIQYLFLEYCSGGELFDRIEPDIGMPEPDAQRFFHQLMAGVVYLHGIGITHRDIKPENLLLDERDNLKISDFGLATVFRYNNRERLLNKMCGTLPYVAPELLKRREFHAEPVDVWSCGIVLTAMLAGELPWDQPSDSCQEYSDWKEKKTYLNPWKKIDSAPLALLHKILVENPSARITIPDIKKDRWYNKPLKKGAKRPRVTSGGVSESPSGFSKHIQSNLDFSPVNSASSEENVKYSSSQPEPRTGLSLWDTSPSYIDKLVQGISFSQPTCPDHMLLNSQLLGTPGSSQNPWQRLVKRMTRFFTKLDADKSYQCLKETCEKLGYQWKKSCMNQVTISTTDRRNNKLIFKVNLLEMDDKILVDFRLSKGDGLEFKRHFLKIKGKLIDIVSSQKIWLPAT
Experimental: (§1) All assays (25.5 μl) were carried out at room temperature (21° C.) and were linear with respect to time and enzyme concentrations under the conditions used. Assays were performed for 30 minutes except assays for LCK and PKB which were performed for 15 minutes using Multidrop Micro reagent dispensers (Thermo Electron Corporation, Waltham, Mass. 02454, USA) in a 96-well format. The concentration of […] [γ-^33P] ATP (800 cpm/pmol) in the assays was one of three concentrations (5, 20 or 50 μM) in order to be at or below Km for ATP for the enzyme. Assays were initiated with MgATP and stopped by addition of 5 μl of 0.5M orthophosphoric acid. Assays were then harvested onto P81 filterplates using a unifilter harvester (PerkinElmer, Boston, Mass. 02118, USA), with a wash buffer of 50 mM orthophosphoric acid. Filterplates were then air dried overnight. 10 μl of Microscint O was added per well prior to counting for radioactivity.
(§2) MKK1, JNK/SAPK1c, SAPK2a/p38, SAPK2b/p38β2, SAPK3/p38γ, SAPK4/p38δ, MAPK2/ERK2, MAPKAP-K1β, MAPKAP-K2, MSK1, PRAK, PKA, PKCα, PDK1, SGK, p70S6K, GSK3β, ROCK-II, PRK2, AMPK, CHK1, CHK2, CK2, PHK, LCK, were assayed according to Davies et al., (Davies, S. P., Reddy, H., Caivano, M. and Cohen, P. Biochem. J. 351, 95-105, 2000.
(§3) CSK and CDK2/cyclinA, were assayed according to Bain et al. (Bain J, McLauchlan H, Elliott M, Cohen P. Biochem J. 371, 199-204, 2003., except that ATP concentrations were either 5, 20 or 50 micromolar so that they were at or below the Km for ATP. The ATP concentrations used were as follows, 5 μM for assays of MKK1, SAPK3, SAPK4, GSK3β, PRK2 CK2 20 μm for assays of JNK, SAPK2β, MAPKAP-K2, MSK1, PRAK, PKA, […], PDK1, SGK, p70S6K, ROCK-II, CHK1, CHK2, CSK, CDK2, and 50 μM for assays of SAPK2a, MAPK2/ERK2, AMPK, LCK, PHK and MAPKAP-K1β.

PRK2 = PRK2 (Homo sapiens, UniProt Q16513); assay: PRK2 33P kinase assay; conditions: read-out: PRK2 activity as percentage of control without inhibitor
Experimental: as §1, §2, §3
(§4) The following kinases were assayed against the substrates indicated. Aurora B was assayed against the substrate peptide […] (300 μM), ERK8 and MST-2 were both assayed against MBP (0.33 mg/ml). IKKβ was assayed against the substrate peptide […] (300 μM), JNK3 was assayed against 3 μM ATF2[19-96]. MAPKAP-K3 and PKD1 were both assayed against […] (30 μM), MARK3 was assayed against CHKtide ([…]) substrate peptide (300 μM). MNK1 and MNK2 were both assayed against eIF4E protein (0.5 mg/ml). NEK7 was assayed against […] (300 μM), PIM2 was assayed against […] (300 μM), ΔPH PKBβ-S474D was assayed against Crosstide (30 μM), PLK1 was assayed against […] (300 μM). PRK2 was assayed against Long S6 peptide, […] (30 μM), RSK2 was assayed against […] (30 μM), SRC was assayed against cdc2 peptide, […], (300 μM) and SRPK1 was assayed against peptide […] (300 μM). All enzymes were diluted in 50 mM Tris/HCl pH 7.5, 0.1 mM EGTA, 1 mg/ml BSA, 0.1% β-mercaptoethanol buffer and assayed in an incubation containing 50 mM Tris/HCl pH7.5, 0.1 mM EGTA, 0.1% β-mercaptoethanol, CAMK-1 (5-20 mU) diluted in 50 mM Tris/HCl pH 7.5, 0.1 mM EGTA, 1 mg/ml BSA, 0.1% β-mercaptoethanol is assayed against substrate peptide […] in an incubation containing 50 mM Tris/HCl pH 7.5, 0.1 mM EGTA, 0.5 mM CaCl2, 0.3 μM calmodulin, 0.1% β-mereaptoethanol, 300 μM substrate peptide, 10 mM magnesium acetate and 0.05 mM [^33P-γ-ATP] (500-1000 cpm/pmole). EF2K (5-20 mU) diluted in 50 mM Hepes pH 6.6, 0.1% β-mercaptoethanol, 1 mg/ml BSA is assayed against a substrate peptide […] in an incubation containing 50 mM Hepes pH 6.6, 0.2 mM CaCl2, 0.3 μM Calmodulin, 0.05% b-mercaptoethanol, 300 μM substrate peptide, 10 mM magnesium acetate and 0.05 mM [^33P-γ-ATP] (500-1000 cpm/pmole).

PLK1 = PLK1 (Homo sapiens, UniProt P53350); assay: PLK1 33P kinase assay; conditions: read-out: PLK1 activity as percentage of control without inhibitor
Experimental: as §1, §4

MAPKAP-K1a = MAPKAP-K1a (Homo sapiens, UniProt Q15418); assay: MAPKAP-K1a 33P kinase assay; conditions: read-out: MAPKAP-K1a activity as percentage of control without inhibitor
Experimental: as §1
MAPKAP-K1a (5-20 mU diluted in 20 mM MOPS pH 7.5, 1 mM EDTA, 0.01% Brij35, 5% glycerol, 0.1% β-mercaptoethanol, 1 mg/ml BSA) is assayed against […] in a final volume of 25.5 μl containing 50 mM Na-β-glycerophosphate pH 7.5, 0.5 mM EDTA, 30 μM substrate peptide, 10 mM magnesium acetate and 0.05 mM [33P- γATP] (50-1000 cpm/pmole) and incubated for 40 min at room temperature.

PRK2, sequence (Q16513 whole entry, species assumed): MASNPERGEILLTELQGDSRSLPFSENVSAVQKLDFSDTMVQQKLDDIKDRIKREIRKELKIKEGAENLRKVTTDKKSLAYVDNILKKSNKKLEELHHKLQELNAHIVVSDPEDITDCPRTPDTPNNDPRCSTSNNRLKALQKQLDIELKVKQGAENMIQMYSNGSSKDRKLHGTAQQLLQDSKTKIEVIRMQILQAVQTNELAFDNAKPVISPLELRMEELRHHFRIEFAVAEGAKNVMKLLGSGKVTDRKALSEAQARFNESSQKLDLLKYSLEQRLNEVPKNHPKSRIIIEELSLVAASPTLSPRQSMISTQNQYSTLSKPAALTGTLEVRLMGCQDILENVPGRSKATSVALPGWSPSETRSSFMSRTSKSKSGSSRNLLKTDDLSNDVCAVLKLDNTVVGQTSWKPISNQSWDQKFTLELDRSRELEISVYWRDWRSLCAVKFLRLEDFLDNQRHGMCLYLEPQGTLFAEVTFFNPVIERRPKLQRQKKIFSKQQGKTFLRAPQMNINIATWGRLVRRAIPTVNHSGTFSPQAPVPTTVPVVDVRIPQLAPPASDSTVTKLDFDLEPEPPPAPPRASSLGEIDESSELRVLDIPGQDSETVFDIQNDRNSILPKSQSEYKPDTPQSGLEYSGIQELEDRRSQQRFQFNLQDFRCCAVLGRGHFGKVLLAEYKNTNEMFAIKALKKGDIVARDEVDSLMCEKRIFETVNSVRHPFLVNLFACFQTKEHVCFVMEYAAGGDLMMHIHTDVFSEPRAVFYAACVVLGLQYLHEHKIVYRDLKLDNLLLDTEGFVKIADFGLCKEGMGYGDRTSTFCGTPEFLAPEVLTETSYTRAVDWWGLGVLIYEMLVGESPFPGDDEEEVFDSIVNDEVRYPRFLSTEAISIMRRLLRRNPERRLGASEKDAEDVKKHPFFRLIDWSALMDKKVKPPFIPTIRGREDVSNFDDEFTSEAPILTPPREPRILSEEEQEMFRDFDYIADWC
MAPKAP-K1a, sequence (Q15418 whole entry, species assumed): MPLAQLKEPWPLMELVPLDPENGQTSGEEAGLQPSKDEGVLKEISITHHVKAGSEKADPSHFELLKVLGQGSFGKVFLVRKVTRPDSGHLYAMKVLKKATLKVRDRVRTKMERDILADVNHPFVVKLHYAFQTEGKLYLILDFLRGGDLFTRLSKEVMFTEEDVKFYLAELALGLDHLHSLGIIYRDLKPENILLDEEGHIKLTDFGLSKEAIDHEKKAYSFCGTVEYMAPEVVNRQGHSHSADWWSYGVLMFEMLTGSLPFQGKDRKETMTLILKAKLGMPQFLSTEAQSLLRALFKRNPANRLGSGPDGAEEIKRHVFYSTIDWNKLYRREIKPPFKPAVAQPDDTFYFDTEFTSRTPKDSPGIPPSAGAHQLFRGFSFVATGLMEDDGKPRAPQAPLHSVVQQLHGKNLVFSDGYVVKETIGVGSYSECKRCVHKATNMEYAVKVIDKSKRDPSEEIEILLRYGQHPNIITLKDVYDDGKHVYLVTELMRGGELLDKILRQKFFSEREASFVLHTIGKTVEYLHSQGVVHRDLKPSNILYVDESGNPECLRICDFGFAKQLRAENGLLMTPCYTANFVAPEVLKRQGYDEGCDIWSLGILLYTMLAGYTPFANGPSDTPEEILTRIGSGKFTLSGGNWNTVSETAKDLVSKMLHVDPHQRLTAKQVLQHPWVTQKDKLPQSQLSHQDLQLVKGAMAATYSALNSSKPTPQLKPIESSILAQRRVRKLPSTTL
PLK1, sequence (P53350 whole entry, species assumed): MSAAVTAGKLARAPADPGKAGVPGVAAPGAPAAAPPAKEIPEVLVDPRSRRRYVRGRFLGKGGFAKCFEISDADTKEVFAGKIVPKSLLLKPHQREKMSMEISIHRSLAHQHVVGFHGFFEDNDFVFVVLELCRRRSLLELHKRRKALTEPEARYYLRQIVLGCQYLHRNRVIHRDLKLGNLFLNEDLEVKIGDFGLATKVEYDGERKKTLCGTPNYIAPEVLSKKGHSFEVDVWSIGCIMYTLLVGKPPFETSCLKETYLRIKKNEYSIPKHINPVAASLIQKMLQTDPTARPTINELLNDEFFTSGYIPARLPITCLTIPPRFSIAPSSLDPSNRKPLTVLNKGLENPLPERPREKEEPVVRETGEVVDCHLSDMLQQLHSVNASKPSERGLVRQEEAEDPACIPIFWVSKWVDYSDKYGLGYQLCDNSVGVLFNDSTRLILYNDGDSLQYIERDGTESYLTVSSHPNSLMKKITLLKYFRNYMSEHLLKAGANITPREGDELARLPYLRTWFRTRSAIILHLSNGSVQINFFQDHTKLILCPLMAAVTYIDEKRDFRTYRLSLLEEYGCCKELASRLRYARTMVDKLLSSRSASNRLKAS

Compound `COc1ccc2c3c([nH]c2c1)C(C)=NCC3` [Harmaline] has a remaining activity at 1 µM (CHK1) of 78%, a remaining activity at 10 µM (CHK1) of 67% and a remaining activity at 1 µM (PRK2; inhibitor 1 μM) of 97%. The remaining activity at 10 µM (PRK2; inhibitor 10 μM) was 83%, the remaining activity at 1 µM (PLK1; inhibitor 1 μM) was 92% and the remaining activity at 10 µM (PLK1; inhibitor 10 μM) was 100%. The remaining activity at 1 µM (MAPKAP-K1a; inhibitor 1 μM) was 98% and the remaining activity at 10 µM (MAPKAP-K1a; inhibitor 10 μM) was 90%.
In the case of `CC1=NCCc2c1[nH]c1cc(O)ccc21` [Harmalol], the remaining activity at 1 µM (CHK1; inhibitor 1 μM) is reported as 93%, the remaining activity at 10 µM (CHK1; inhibitor 10 μM) is reported as 81% and the remaining activity at 1 µM (PRK2; inhibitor 1 μM) is reported as 86%. The remaining activity at 10 µM (PRK2; inhibitor 10 μM) was 54%, the remaining activity at 1 µM (PLK1; inhibitor 1 μM) was 88% and the remaining activity at 10 µM (PLK1; inhibitor 10 μM) was 81%. It also gave a remaining activity at 1 µM (MAPKAP-K1a; inhibitor 1 μM) of 101% and a remaining activity at 10 µM (MAPKAP-K1a; inhibitor 10 μM) of 85%.
`COc1ccc2c(c1)[nH]c1c(C)nccc12` [Harmine] showed a remaining activity at 1 µM (CHK1) of 86%, a remaining activity at 10 µM (CHK1) of 86% and a remaining activity at 1 µM (PRK2) of 82%. The remaining activity at 10 µM (PRK2) was 45%, the remaining activity at 1 µM (PLK1) was 92% and the remaining activity at 10 µM (PLK1) was 87%. It also gave a remaining activity at 1 µM (MAPKAP-K1a) of 105% and a remaining activity at 10 µM (MAPKAP-K1a) of 92%.
